Where two headings read alike, the source gives them in different places.
What was measured:
Assay type in all cases: cell-based
[1] = system: PMN's (polymorphonuclear leukocytes); assay: Neutrophil oxidative burst assay; settings: Leukocyte, 40 min, read-out: Neutrophil oxidative burst Rel EC50 range
Procedure: Neutrophil Oxidative Burst Assay:
PMN's (polymorphonuclear leukocytes) were isolated and purified from fresh buffy coats by sequential sedimentation, density centrifugation and lysis of contaminating erythrocytes. Buffy coats were incubated with 2% methocel for 30-45 min to differentially sediment red blood cells. The leukocyte-rich supernatant was transferred to lymphoprep tubes to remove mononuclear cells by density centrifugation (400×g, 30 min). The pellet was resuspended and any remaining erythrocytes lysed using 0.2% NaCl for 30 sec before restoring isotonicity by the addition of 1.2% NaCl. This step was repeated until the cell pellet appears relatively free of red blood cells. Cells were resuspended in DPBS (Dulbecco's Phosphate Buffered Saline) (w.o. Ca^2+, Mg^2+) and the concentration adjusted to 1.4×10^6 cells/ml in HBSS (Hanks Balanced Salt solution) (w Ca^2+, Mg^2+) containing 0.1% BSA (Bovine Serum Albumin) and 5 mM glucose just prior to assay initiation. Titrated reference and test compounds were pre-mixed with HE (Hydroethidine) (10 μM final assay concentration) before addition to 96-well plates containing 2.5×10^5 cells. Following 40 min incubation at RT, changes in the respiratory burst was estimated by measuring fluorescence at 579 nm (excitation: 485 nm) using an Envision plate reader.
Test compound titration curves were fitted to a four-parameter sigmoidal curve after normalizing the effect of the test compound to the effect of the positive control (5×10^−7 M PEP0005). Rel EC50 denotes the concentration of test compound producing an effect that is midway between the fitted top and bottom. Abs EC50 is the concentration of test compound that provokes a response corresponding to 50% of the maximal effect associated with the positive control (5×10^−7 M PEP0005).

[2] = system: Primary human epidermal keratinocytes, HeKa; assay: HeKa cytokine release (IL-8) assay
Procedure: HeKa Cytokine Release (IL-8) Assay:
Primary human epidermal keratinocytes, HeKa, were seeded (10.000 cells/well) in 96-well plates the day before the assay. Test compounds were diluted in DMSO (dimethyl sulfoxide) and further diluted in assay medium and pipetted into wells of 96 well-plates containing HeKa cells. The plates were incubated for 6 h at 37° C. in humidified air with 5% CO2. Plates were centrifuged briefly to spin down cells at 4° C., the supernatant was removed and analysed by Meso Scale Discovery (MSD) 4-spot cytokine assay (Pro-inflammatory II Ultra Sensitive kit, MSD, MD, USA). The MSD assay employs a sandwich immunoassay format where capture antibodies are coated in a patterned array on the bottom of the wells of a 4-Spot-Multi-MSD plate. Standard samples were incubated in the MULTI-SPOT plates as well, and the cytokine (IL-8) binds to its corresponding capture antibody spot. The cytokine level was quantitated on a SECTOR™ Imager using a cytokine-specific Detection Antibody labelled with MSD SULFO-TAG™ reagent.
Test compound titration curves were fitted to a four-parameter sigmoidal curve after normalizing the effect of the test compound to the effect of the positive control (1.5×10^−7 M PEP0005). Rel EC50 denotes the concentration of test compound producing an effect that is midway between the fitted top and bottom.

HeLa cells = assay: Necrosis assay; settings: Homo sapiens, 0.5 h, read-out: HeLa Necrosis EC50 range
Procedure: HeLa cells (ATCC CCL-002) were grown in minimal essential medium (Invitrogen catalog no. 42360) containing 10% fetal bovine serum, 100 IU/ml penicillin and 100 μg/ml streptomycin. 4,000-6,000 cells were seeded into 96-well black ViewPlates-plates, clear bottom, (Perkin Elmer) in 100 μl medium and incubated overnight. Compounds were dissolved and pre-diluted in DMSO in 96-well polypropylene plates (Greiner) in a concentration range of 15 μM to 600 μM. At the time of the experiment cell plates were placed on heating blocks at 37° C., medium was removed and 40 μl fresh, pre-warmed medium was added per well. Cells were incubated for 15 min before addition of compounds. In parallel, 3 μl of compounds were diluted with 197 μl growth medium on a Tecan freedom-EVO pipetting station using 250 μl/s pipetting speed, in order to ensure effective mixing of the highly concentrated compound solutions with the aqueous phase. These pre-dilution plates were then equilibrated on heating blocks at 37° C. for 10 min. 80 μl pre-diluted compound were transferred manually to the corresponding wells containing HeLa cells yielding compound concentrations of 10 μM to 400 μM. Control conditions were 1% DMSO in growth medium (100% viability) and 400 μM ingenol mebutate in growth medium (0% viability). Plates were incubated on the heating blocks at 37° C. for 30 min. At the end of the incubation 10 μl PrestoBlue reagent (Invitrogen) were added to each well, plates were sealed with black seal, followed by incubation at 37° C. for 10 min with gentle shaking (150 rpm). Subsequently, plates were placed at room temperature for 20-30 min. Plates were read immediately after on an Envision Fluorescence reader (Perkin Elmer) with excitation at 535 nm and emission at 630 nm. Test compound titration curves were fitted to a four-parameter sigmoidal curve after normalizing the effect of the test compound to the effect of the positive control (4 10^−4 M PEP0005/ingenol mebutate). AbsEC50 denotes the concentration of test compound producing 50% effect.

SMILES	EC50 [1] [nM]	EC50 ([2]; HEKa, 6 h, read-out: HeKa cytokine release (IL-8) Rel EC50 range) [nM]	EC50 (HeLa cells; HeLa) [µM]	EC50 ([1]; PMNs, 40 min at RT, hydroethidine fluorescence, normalized to 5×10^−7 M PEP0005) [nM]	EC50 ([2]; HeKa cells, 6 h at 37° C., MSD IL-8, normalized to 1.5×10^−7 M PEP0005, read-out: HeKa cytokine release (IL-8) Rel EC50 range) [nM]	EC50 (HeLa cells; HeLa cells, 30 min at 37° C., PrestoBlue, AbsEC50, normalized to 4 10^−4 M PEP0005/ingenol mebutate) [µM]
CC1=C[C@]23C(=O)[C@@H](C=C(CO)[C@@H](O)[C@]2(O)[C@H]1OC(=O)C(=O)N(C)c1ccccc1)[C@H]1[C@@H](C[C@H]3C)C1(C)C [Compound 121, Ingenol 3-(2-(methyl(phenyl)amino)-2-oxo-acetate)]	20 to 100	> 100	< 350	–	–	–
C/C=C(/C)C(=O)O[C@H]1C(C)=C[C@]23C(=O)[C@@H](C=C(CO)[C@@H](O)[C@]12O)[C@H]1[C@@H](C[C@H]3C)C1(C)C [PEP005, Ingenol-3-angelate, reference compound]	–	–	–	< 20	< 20	150 to 350

— patent US9388124B2, “Ingenol-3-acylates I” (LEO LABORATORIES LIMITED, priority 2010, dated 2016)
